Literature values as cited in patent US20200129499A1, “COMBINATION OF TASQUINIMOD OR A PHARMACEUTICALLY ACCEPTABLE SALT THEREOF AND A PD-1 AND/OR PD-L1 INHIBITOR, FOR USE AS A MEDICAMENT” (ACTIVE BIOTECH AB, priority 2015, published 2020).

Test system: metastatic bladder cancer
Details: phase 1a study, cited from earlier work

## atezolizumab: anti-PD-L1 human IgG1 antibody (Roche)
People with the highest levels of PD-L1 expression
  people alive at 1 year: 57%
Metastatic bladder cancer
  Complete responses (CRs): 20%
